According to ChEMBL document CHEMBL3271996, “Potential antitumor agents. Synthesis of bifunctional alpha-methylene-gamma-butyrolactones” (J Med Chem, 1976):
In brackets after ≈: the same amount, converted by molar mass. Activity calls are given as the source filed them. No cut-off for these calls is given here.

Columns and labels:
L1210 [1] = test: Antitumor activity against mouse L1210 cells allografted in mouse at 100 to 400 mg/kg; format: functional, organism-based
9KB = test: (§1) Cytotoxicity against human 9KB cells; format: functional
W256 [2] = test: Antitumor activity against rat Walker 256 cells allografted in rat; format: functional
Rattus norvegicus [3] = species: Rattus norvegicus; test: Toxicity in rat Walker 256 cells allografted rat; format: organism-based
Rattus norvegicus [4] = test: Toxicity in rat Walker 256 cells allografted rat at 37.5 mg/kg; format: organism-based; design: dose 37.5 mg/kg; conditions: in vivo
W256 [5] = test: Antitumor activity against rat Walker 256 cells allografted in rat assessed as inhibition of tumor growth at 18.75 mg/kg; format: functional; conditions: read-out: TGI
[6] = as §1; format: functional; conditions: read-out: ED50 (the source's name)
L1210 [7] = test: Antitumor activity against mouse L1210 cells allografted in mouse; format: functional
W256 [8] = test: Antitumor activity against rat Walker 256 cells allografted in rat assessed as inhibition of tumor growth at 120 mg/kg; format: functional; conditions: read-out: TGI
HeLa = test: Cytotoxicity against human HeLa cells at 5 ug/ml; format: functional, cell-based
Rattus norvegicus [9] = test: Toxicity in rat Walker 256 cells allografted rat at 240 mg/kg; format: organism-based; design: dose 240 mg/kg; conditions: in vivo

SMILES	Activity (L1210 [1])	Activity (9KB)	EC50 [6] [µg/mL]	other results
O=C1OCC/C1=C\OC(=O)c1ccccc1	inactive	–	–	–
Cc1ccc(S(=O)(=O)O/C=C2\CCOC2=O)cc1	inactive	inactive	–	–
O=C1OCC/C1=C\OCCCCCCO/C=C1\CCOC1=O	inactive	inactive	–	Activity (W256 [2]): inactive; Activity (Rattus norvegicus [3]): Non-toxic
O=C1OCC/C1=C\OCCO/C=C1\CCOC1=O	inactive	inactive	–	–
C=C1CC(CCCC2CC(=C)C(=O)O2)OC1=O (stereo not given)	–	–	4 (≈ 16.9 µM)	Activity (Rattus norvegicus [4]): Toxic; inhibition in vivo at 18.75 mg/kg (W256 [5]): 45%; Activity (L1210 [7]): inactive
CC1(O/C=C2\CCOC2=O)C=CC(=O)O1 (stereo not given)	–	–	–	inhibition in vivo at 120 mg/kg (W256 [8]): 27%; Activity (HeLa): Active; Activity (Rattus norvegicus [9]): Toxic
C=C1CCOC1=O [TULIPALINE A]	–	–	16 (≈ 163 µM)	–
C=C1CC(CCCCCC2CC(=C)C(=O)O2)OC1=O (stereo not given)	–	–	15 (≈ 56.7 µM)	Activity (L1210 [7]): inactive
O=C1OCC/C1=C\OCCCCCCCCCCO/C=C1\CCOC1=O	inactive	–	–	–
O=C1OCC/C1=C\OCCCCO/C=C1\CCOC1=O	inactive	inactive	–	–
C=C1CC(CCCCC2CC(=C)C(=O)O2)OC1=O (stereo not given)	–	–	32 (≈ 128 µM)	Activity (L1210 [7]): inactive
O=C1OCC/C1=C\OCCCCCO/C=C1\CCOC1=O	inactive	–	–	–
O=C1OCC/C1=C\OCCCO/C=C1\CCOC1=O	inactive	–	–	–
O=C(Cc1ccccc1)O/C=C1\CCOC1=O	inactive	inactive	–	–
C=C1CC(CCCCCCC2CC(=C)C(=O)O2)OC1=O (stereo not given)	–	–	7 (≈ 25.1 µM)	Activity (L1210 [7]): inactive
